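The compound was tested at five concentrations on cells cultured in 96-well plates, with a 48-hour exposure period. GI50 is the concentration that inhibits growth by half.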 Active and inactive are the calls of the source. Rule as the data show it: active = GI50 up to about 1.1 µM and inactive = higher.
How the values were obtained:
Experiment in all cases: growth of human tumour cells (NCI), 48 h
UACC-257 = test system: UACC-257
MDA-MB-231 = test system: MDA-MB-231
A549 = test system: A549
OVCAR-3 = test system: OVCAR-3
MOLT-4 = test system: MOLT-4
RPMI-8226 = test system: RPMI-8226
K562 = test system: K562
T47D = test system: T47D
COLO 205 = test system: COLO 205
LOX IMVI = test system: LOX IMVI
ACHN = test system: ACHN
SNB-75 = test system: SNB-75
SNB-19 = test system: SNB-19
SF-539 = test system: SF-539
EKVX = test system: EKVX
NCI-H23 = test system: NCI-H23
NCI/ADR-RES = test system: NCI/ADR-RES
SK-MEL-2 = test system: SK-MEL-2
U-251 = test system: U-251
OVCAR-5 = test system: OVCAR-5
HT-29 = test system: HT-29
HOP-92 = test system: HOP-92
MDA-MB-435 = test system: MDA-MB-435
TK-10 = test system: TK-10
OVCAR-4 = test system: OVCAR-4
DU-145 = test system: DU-145
UO-31 = test system: UO-31
SN12C = test system: SN12C
PC-3 = test system: PC-3
M14 = test system: M14
HCT-116 = test system: HCT-116
IGROV-1 = test system: IGROV-1
CCRF-CEM = test system: CCRF-CEM
SW-620 = test system: SW-620
OVCAR-8 = test system: OVCAR-8
NCI-H226 = test system: NCI-H226
RXF 393 = test system: RXF 393
HCC 2998 = test system: HCC 2998
MCF7 = test system: MCF7
BT-549 = test system: BT-549
SK-MEL-28 = test system: SK-MEL-28
KM12 = test system: KM12
MDA-N = test system: MDA-N
SF-295 = test system: SF-295
SK-MEL-5 = test system: SK-MEL-5
UACC-62 = test system: UACC-62
HOP-62 = test system: HOP-62
SK-OV-3 = test system: SK-OV-3
NCI-H460 = test system: NCI-H460
CAKI-1 = test system: CAKI-1
NCI-H522 = test system: NCI-H522
786-0 = test system: 786-0
A498 = test system: A498
SR = test system: SR
Malme-3M = test system: Malme-3M
HCT-15 = test system: HCT-15
HL-60 = test system: HL-60
SF-268 = test system: SF-268

Q: What does the source list for CC/C=C(\C(=C/CC)[N+](=O)[O-])[N+](=O)[O-]?
A: GI50 (UACC-257): 17.1 µM (inactive); GI50 (MDA-MB-231): 21 µM (inactive); GI50 (A549): 74.6 µM (inactive); GI50 (OVCAR-3): 16.1 µM (inactive); GI50 (MOLT-4): 42.7 µM (inactive); GI50 (RPMI-8226): 24.1 µM (inactive); GI50 (K562): 30.3 µM (inactive); GI50 (T47D): 28.4 µM (inactive); GI50 (COLO 205): 17.8 µM (inactive); GI50 (LOX IMVI): 17.5 µM (inactive); GI50 (ACHN): 18.7 µM (inactive); GI50 (SNB-75): > 100 µM (inactive); GI50 (SNB-19): > 100 µM (inactive); GI50 (SF-539): 21.3 µM (inactive); GI50 (EKVX): 15.6 µM (inactive); GI50 (NCI-H23): 18.9 µM (inactive); GI50 (NCI/ADR-RES): 20.7 µM (inactive); GI50 (SK-MEL-2): 47.5 µM (inactive); GI50 (U-251): 17.7 µM (inactive); GI50 (OVCAR-5): 13.4 µM (inactive); GI50 (HT-29): 16.4 µM (inactive); GI50 (HOP-92): 23.7 µM (inactive); GI50 (MDA-MB-435): 16.8 µM (inactive); GI50 (TK-10): 18.1 µM (inactive); GI50 (OVCAR-4): 22.8 µM (inactive); GI50 (DU-145): 21.3 µM (inactive); GI50 (UO-31): 18.9 µM (inactive); GI50 (SN12C): 18.9 µM (inactive); GI50 (PC-3): 33.1 µM (inactive); GI50 (M14): 13.4 µM (inactive); GI50 (HCT-116): 19.9 µM (inactive); GI50 (IGROV-1): 17.6 µM (inactive); GI50 (CCRF-CEM): 8.22 µM (inactive); GI50 (SW-620): 17.1 µM (inactive); GI50 (OVCAR-8): 21.4 µM (inactive); GI50 (NCI-H226): 95.5 µM (inactive); GI50 (RXF 393): 14.9 µM (inactive); GI50 (HCC 2998): 19.4 µM (inactive); GI50 (MCF7): 16.7 µM (inactive); GI50 (BT-549): 18.1 µM (inactive); GI50 (SK-MEL-28): 19.9 µM (inactive); GI50 (KM12): > 10 µM (inactive); GI50 (MDA-N): 22.8 µM (inactive); GI50 (SF-295): > 100 µM (inactive); GI50 (SK-MEL-5): 31 µM (inactive); GI50 (UACC-62): 18 µM (inactive); GI50 (HOP-62): 58.2 µM (inactive); GI50 (SK-OV-3): > 100 µM (inactive); GI50 (NCI-H460): 18 µM (inactive); GI50 (CAKI-1): 23.2 µM (inactive)

Q: What does the source list for CCCC(=O)Oc1c2ccsc2c(OC(=O)CCC)c2ccsc12?
A: GI50 (UACC-257): 0.92 µM (active); GI50 (MDA-MB-231): 1.49 µM (inactive); GI50 (A549): 3.94 µM (inactive); GI50 (NCI-H522): 2.26 µM (inactive); GI50 (OVCAR-3): 1.07 µM (active); GI50 (786-0): 4.55 µM (inactive); GI50 (MOLT-4): 1.96 µM (inactive); GI50 (RPMI-8226): 1.41 µM (inactive); GI50 (K562): 1.24 µM (inactive); GI50 (T47D): 6.37 µM (inactive); GI50 (COLO 205): 10.9 µM (inactive); GI50 (LOX IMVI): 0.594 µM (active); GI50 (ACHN): 2.23 µM (inactive); GI50 (SNB-75): 1.83 µM (inactive); GI50 (A498): 4.6 µM (inactive); GI50 (SNB-19): 2.6 µM (inactive); GI50 (SR): 444 nM (active); GI50 (SF-539): 0.982 µM (active); GI50 (Malme-3M): 359 nM (active); GI50 (EKVX): 2.27 µM (inactive); GI50 (NCI-H23): 0.74 µM (active); GI50 (NCI/ADR-RES): 1.04 µM (active); GI50 (SK-MEL-2): 1.09 µM (active); GI50 (U-251): 1.36 µM (inactive); GI50 (OVCAR-5): 2.76 µM (inactive); GI50 (HT-29): 5.35 µM (inactive); GI50 (HOP-92): 1.1 µM (active); GI50 (HCT-15): 1210 nM; GI50 (MDA-MB-435): 0.305 µM (active); GI50 (TK-10): 4.48 µM (inactive); GI50 (OVCAR-4): 2.94 µM (inactive); GI50 (DU-145): 0.857 µM (active); GI50 (UO-31): 2.53 µM (inactive); GI50 (SN12C): 1.11 µM (active); GI50 (PC-3): 0.836 µM (active); GI50 (M14): 1.57 µM (inactive); GI50 (HCT-116): 1.35 µM (inactive); GI50 (IGROV-1): 4.18 µM (inactive); GI50 (CCRF-CEM): 1.54 µM (inactive); GI50 (SW-620): 1.63 µM (inactive); GI50 (OVCAR-8): 0.407 µM (active); GI50 (HL-60): 1.08 µM (active); GI50 (NCI-H226): 4 µM (inactive); GI50 (RXF 393): 3.05 µM (inactive); GI50 (HCC 2998): 4.14 µM (inactive); GI50 (MCF7): 2.23 µM (inactive); GI50 (SF-268): 3.13 µM (inactive); GI50 (BT-549): 1.35 µM (inactive); GI50 (SK-MEL-28): 0.951 µM (active); GI50 (KM12): 7.64 µM (inactive); GI50 (MDA-N): 0.371 µM (active); GI50 (SF-295): 0.457 µM (active); GI50 (SK-MEL-5): 0.804 µM (active); GI50 (UACC-62): 1.14 µM (inactive); GI50 (HOP-62): 0.536 µM (active); GI50 (SK-OV-3): 0.75 µM (active); GI50 (NCI-H460): 1.05 µM (active); GI50 (CAKI-1): 5.55 µM (inactive)

— ChEMBL document CHEMBL1201862, “PubChem BioAssay data set” (2004)
